Results reported in paper PMC10762035, “Molecular basis of human trace amine-associated receptor 1 activation” (Nature Communications, 2024).
Changes are numbered by the printed parent chain. Several values for one entry are separate records, joined by “and”; a condition that tells them apart may be missing. Equal values may be shown once.

Experiments:
hTA1 = biological target: T1, hTA1 (Homo sapiens, UniProt Q96RJ0); assay: GloSensor cAMP accumulation assay, concentration response, wild-type hTA1 in transfected HEK293T cells; assay type: cell-based; conditions: for Dose-response curves for asenapine vs endogenous trace amines: log[Compound], replicate values (N=2);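 for all read-outs here: luminescence read after 30 min compound exposure at room temperature in cells preloaded with D-Luciferin, reflecting Gs-driven cAMP rise, efficacy scaled to the maximal β-PEA response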
T1 construct: expressed in transfected cells; host or cells: HEK293T
T1 sequence (Q96RJ0 1-339): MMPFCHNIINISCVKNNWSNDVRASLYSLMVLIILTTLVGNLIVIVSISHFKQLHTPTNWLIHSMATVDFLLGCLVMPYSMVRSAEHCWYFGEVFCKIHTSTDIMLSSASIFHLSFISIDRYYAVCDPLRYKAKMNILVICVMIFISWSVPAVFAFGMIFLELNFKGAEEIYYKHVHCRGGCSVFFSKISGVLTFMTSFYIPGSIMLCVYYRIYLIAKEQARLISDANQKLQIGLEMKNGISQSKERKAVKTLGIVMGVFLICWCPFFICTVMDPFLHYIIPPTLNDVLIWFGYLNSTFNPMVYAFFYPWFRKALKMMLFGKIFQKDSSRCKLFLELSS

hTA1 R83H = biological target: T2, hTA1 R83H (Homo sapiens, UniProt Q96RJ0, R83H); assay: GloSensor cAMP accumulation assay, R83H mutant; assay type: cell-based;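 note: cells transiently co-expressing hTA1 and a cAMP GloSensor, luminescence read 30 min after agonist addition at room temperature, concentration–response fitted by non-linear regression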
T2 construct: expressed in transfected cells; host or cells: HEK293T
T2 sequence (Q96RJ0 1-339 R83H): T1 sequence (Q96RJ0 1-339) with R83H

hTA1 I290Y = biological target: T3, hTA1 I290Y (Homo sapiens, UniProt Q96RJ0, I290Y); assay: GloSensor cAMP accumulation assay, I290Y mutant; assay type: cell-based; conditions: for cAMP accumulation response, normalized (concentration-response source data, single replicate values): hTA1 I290Y (N=3), log[Compound];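 for cAMP accumulation response, normalized (concentration-response source data, single replicate values): normalized to the maximum response of β-PEA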
T3 construct: expressed in transfected cells; host or cells: HEK293T
T3 sequence (Q96RJ0 1-339 I290Y): T1 sequence (Q96RJ0 1-339) with I290Y

hTA1 T194A = biological target: T4, hTA1 T194A (Homo sapiens, UniProt Q96RJ0, T194A); assay: GloSensor cAMP accumulation assay, T194A mutant; conditions: for cAMP accumulation response, individual replicate values of the concentration-response curve: hTA1 T194A, log[Agonist], Supplementary Figure 5 source data
T4 sequence (Q96RJ0 1-339 T194A): T1 sequence (Q96RJ0 1-339) with T194A

NCCc1ccc(Oc2ccc(O)cc2)c(I)c1 [T1AM, 3-iodothyronamine]
pEC50 values, Avg (hTA1; WT hTA1, average of the two experiments, Figure 2B source data): 6.129
pEC50 values, Mean (hTA1; WT hTA1, each line an independent experiment, 3 replicates, Figure 2B source data): 6.182 and 6.077
Emax values, Avg (hTA1; WT hTA1, β-PEA = 100, average of the two experiments): 70.45
Emax values, Mean (hTA1; WT hTA1, β-PEA = 100, each line an independent experiment, 3 replicates): 81.6192 and 59.2734
Emax values, Avg (hTA1; WT, average of the experiments, β-PEA = 100): 70.45
Emax values, Avg (hTA1; WT, average of the two experiments): 70.45
Emax values, Mean (hTA1; WT, mean of each independent experiment (3 replicates), β-PEA = 100): 81.6192 and 59.2734
Emax values, Mean (hTA1; WT, single experiments (3 replicates each), β-PEA = 100): 81.6192 and 59.2734
Dose-response curves for asenapine vs endogenous trace amines (hTA1; M = -5): 80.3892 and 70.8419 and 77.0287 and 53.9778 and 58.2977 and 47.0284
Dose-response curves for asenapine vs endogenous trace amines (hTA1; M = -5.522): 67.6372 and 58.4905 and 72.8448 and 53.4613 and 47.5449 and 34.1625
Dose-response curves for asenapine vs endogenous trace amines (hTA1; M = -6): 47.6524 and 43.0457 and 45.9165 and 36.4633 and 32.8477 and 25.2879
Dose-response curves for asenapine vs endogenous trace amines (hTA1; M = -6.522): 27.5341 and 25.2641 and 26.1988 and 18.1976 and 14.2064 and 10.9195
Dose-response curves for asenapine vs endogenous trace amines (hTA1; M = -7): 12.6456 and 9.641 and 11.7554 and 4.346 and 3.125 and 2.796
Dose-response curves for asenapine vs endogenous trace amines (hTA1; M = -7.522): 2.609 and 0.272 and 1.897 and 0.1666 and -0.02121 and -0.8664
Dose-response curves for asenapine vs endogenous trace amines (hTA1; M = -8): 1.34 and 0.4055 and 0.9619 and 0.2136 and -0.06817 and -0.9603
Dose-response curves for asenapine vs endogenous trace amines (hTA1; M = -8.522): -0.9075 and -0.6182 and -0.5737 and -1.007 and 0.1197 and -2.04
Dose-response curves for asenapine vs endogenous trace amines (hTA1; M = -9): -0.9521 and -0.863 and -1.419 and -0.8664 and -0.8195 and -1.618
Dose-response curves for asenapine vs endogenous trace amines (hTA1; M = -9.522): -1.019 and -2.087 and -1.442 and -1.383 and -0.8195 and -2.228
Dose-response curves for asenapine vs endogenous trace amines (hTA1; M = -10): -0.863 (2×) and -1.286 and -1.477 and -1.054 and -1.571
Dose-response curves for asenapine vs endogenous trace amines (hTA1; M = -10.522): -1.531 and -2.287 and -1.464 and -1.571 and -1.336 and -1.618
Dose-response curves for asenapine vs endogenous trace amines (hTA1; M = -11): -0.1731 and -0.9075 and -0.3734 and -0.5847 and 0.1197 and -1.054
Dose-response curves for asenapine vs endogenous trace amines (hTA1; M = -11.522): -0.507 and -1.152 and -1.197 and -0.209 and -0.1151 and -1.054
Dose-response curves for asenapine vs endogenous trace amines (hTA1; M = -12): -0.774 and -1.419 and -1.8645 and -1.336 (2×) and -1.571
Dose-response curves for asenapine vs endogenous trace amines (hTA1; M = -12.522): -1.019 and -1.798 (2×) and -0.7255 and -1.43 and -2.087
pEC50 ± SEM (hTA1; wt hTA1, HEK293T, n=3): 6.13 ± 0.04
EC50 (hTA1; wt hTA1, HEK293T, n=3, read-out: EC50): 743 nM
Emax (hTA1; wt hTA1, relative to β-PEA): 70.5%
ΔEmax values (each mutant value - WT average) (hTA1 R83H; R83H mutant minus WT average): -50.5458
Emax values, Mean (hTA1 R83H; R83H mutant, β-PEA = 100, each line an independent experiment, 3 replicates): 19.9005 and -6.007
Span ± SEM (Emax normalized to β-PEA) (hTA1 R83H; R83H, n=2): 6.95 ± 12.95
Span ± SEM (Emax normalized to β-PEA) (hTA1 I290Y; I290Y): 68.94 ± 4.39
pEC50 ± SEM (hTA1 I290Y; I290Y): 6.05 ± 0.08
EC50 (hTA1 I290Y; I290Y, read-out: EC50): 889 nM
pEC50 values, Mean (hTA1 I290Y; I290Y, single experiments (3 replicates each)): 6.088 and 6.268 and 5.798
Emax values, Mean (hTA1 I290Y; I290Y, single experiments (3 replicates each), β-PEA = 100): 77.2061 and 62.2509 and 67.3555
cAMP accumulation response, normalized (concentration-response source data, single replicate values) (hTA1 I290Y; M = -5): 82.7627 and 66.4498 and 84.9173 and 54.2232 and 60.0862 and 58.254 and 61.3384 and 53.4426 and 63.5944
cAMP accumulation response, normalized (concentration-response source data, single replicate values) (hTA1 I290Y; M = -5.522): 50.7524 and 44.2888 and 57.216 and 57.1547 and 52.391 and 42.1307 and 35.395 and 42.1629 and 29.7552
cAMP accumulation response, normalized (concentration-response source data, single replicate values) (hTA1 I290Y; M = -6): 45.5199 and 34.7472 and 39.6719 and 40.665 and 36.2677 and 35.5349 and 24.1153 and 32.0111 and 19.6034
cAMP accumulation response, normalized (concentration-response source data, single replicate values) (hTA1 I290Y; M = -6.522): 32.5927 and 17.8187 and 23.9745 and 21.6102 and 23.076 and 24.1753 and 17.3474 and 11.7076 (2×)
cAMP accumulation response, normalized (concentration-response source data, single replicate values) (hTA1 I290Y; M = -7): 19.6655 and 9.201 and 18.4343 and 8.4185 and 1.456 and 10.9836 and 6.068 and 3.812 and 4.9397
cAMP accumulation response, normalized (concentration-response source data, single replicate values) (hTA1 I290Y; M = -7.522): 3.968 and -2.188 and 2.737 and 2.189 and -3.307 and -4.04 and -0.7002 and 0.4278 and -1.828
cAMP accumulation response, normalized (concentration-response source data, single replicate values) (hTA1 I290Y; M = -8): 2.429 and 0.2746 and -0.0332 and -1.842 and -5.873 and -3.674 and -2.956 and -4.0841 and -0.7002
cAMP accumulation response, normalized (concentration-response source data, single replicate values) (hTA1 I290Y; M = -8.522): 0.2746 and -3.111 and -0.341 and -6.605 (2×) and -5.873 and -4.0841 (2×) and -5.212
cAMP accumulation response, normalized (concentration-response source data, single replicate values) (hTA1 I290Y; M = -9): -1.88 and -2.803 and -1.572 and 0.7233 and -0.376 and -4.773 and -6.34 and -4.0841 (2×)
cAMP accumulation response, normalized (concentration-response source data, single replicate values) (hTA1 I290Y; M = -9.522): -1.88 and -3.7267 and -2.188 and -6.605 and -1.109 and -4.407 and -4.0841 (2×) and -6.34
cAMP accumulation response, normalized (concentration-response source data, single replicate values) (hTA1 I290Y; M = -10): -0.0332 and -2.496 and -1.572 and -6.605 and -6.972 and 4.021 and -2.956 (2×) and -6.34
cAMP accumulation response, normalized (concentration-response source data, single replicate values) (hTA1 I290Y; M = -10.522): -1.572
pEC50 values, Mean (hTA1 T194A; T149A (so in the source), single experiments (3 replicates each)): 6.398 and 6.629 and 6.1942
Emax values, Mean (hTA1 T194A; T149A (so in the source), single experiments (3 replicates each), β-PEA = 100): 79.7491 and 146.858 and 73.3036
EC50 (hTA1 T194A; T194A): 235 nM
Span ± SEM (Emax normalized to β-PEA) (hTA1 T194A; T194A): 99.97
pEC50 ± SEM (hTA1 T194A; T194A): 6.41 ± 0.14
cAMP accumulation response, individual replicate values of the concentration-response curve (hTA1 T194A; M = -7.522): 6.402 and 2.253 and 5.81 and 6.799 and 11.9487 and 8.441
cAMP accumulation response, individual replicate values of the concentration-response curve (hTA1 T194A; M = -8): 0.08035 and -1.303 and -0.1172 and 2.714 and 2.536 and 3.069
cAMP accumulation response, individual replicate values of the concentration-response curve (hTA1 T194A; M = -8.522): -1.5 and -0.9074 and -0.5123 and 0.09457 and 0.1834 and 0.5385
cAMP accumulation response, individual replicate values of the concentration-response curve (hTA1 T194A; M = -9): -0.9074 and -1.303 (2×) and -1.015 and -1.326 and -0.3494
cAMP accumulation response, individual replicate values of the concentration-response curve (hTA1 T194A; M = -9.522): -2.093 (3×) and -0.6158 and -1.149 and -0.527
cAMP accumulation response, individual replicate values of the concentration-response curve (hTA1 T194A; M = -10): -1.698 and -1.303 and -1.105 and -0.749 (2×) and -0.4382
cAMP accumulation response, individual replicate values of the concentration-response curve (hTA1 T194A; M = -10.522): -1.5 and -1.303 and -1.698 and -0.8822 and -1.326 and -0.971
cAMP accumulation response, individual replicate values of the concentration-response curve (hTA1 T194A; M = -11): -1.303 and -0.9074 and -0.3148 and -0.4826 and -0.9266 and 0.5385
cAMP accumulation response, individual replicate values of the concentration-response curve (hTA1 T194A; M = -11.522): -1.303 (2×) and -0.9074 and -0.4382 and -0.7046 and -0.3938
cAMP accumulation response, individual replicate values of the concentration-response curve (hTA1 T194A; M = -12): -0.5123 and -1.105 and -1.5 and -0.4826 and -0.5714 and -0.6158
cAMP accumulation response, individual replicate values of the concentration-response curve (hTA1 T194A; M = -12.522): -0.3148 (2×) and -0.5123 and -0.5714 (2×) and -0.305
